Literature values, collected in article PMC10830684, “Effect of Oregon grape root extracts on P-glycoprotein mediated transport in in vitro cell lines” (Journal of Pharmacy & Pharmaceutical Sciences, 2024).

Test system: P-gp
Parameters: method as in PMID 12434406
Settings: Caco-2 cells; inhibitor 1 mM; cited from earlier work

For `COc1cccc2c1C(=O)c1c(O)c3c(c(O)c1C2=O)C[C@@](O)(C(C)=O)C[C@@H]3O[C@H]1C[C@H](N)[C@H](O)[C@H](C)O1` [daunomycin], the “inhibition of the efflux of 20 µM berberine” value is listed as 100%.

For `COC(=O)c1ccccc1-c1c2ccc(=N)cc-2oc2cc(N)ccc12` [rhodamine123], the “inhibition of the efflux of 20 µM berberine” value is given as 100%.
